From PubChem BioAssay AID179 (DTP/NCI, 2004)
The source made the active and inactive calls.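 How the source made its calls: active means compounds giving half or more protection of infected cells from virus-caused growth loss, again on retest; inactive means the rest.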

System: CEM cells HIV-1 protection, formazan growth assay
Assay: NCI AIDS Antiviral Assay
Conditions: for IC50: measured here: growth of uninfected CEM cells
Outline: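 Category rules: moderately active means at least 50% protection on retest, and confirmed active means 100% protection reproducibly. The underlying data came from a formazan growth assay in HIV-1-infected CEM cells.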

Structure (SMILES) | EC50 [µM] | IC50 [µM] | outcome
COc1cc2c(c(OC)c1OC)-c1ccc(OC)c(=O)cc1C(NC(=O)c1ccc(N=[N+]=[N-])cc1)CC2 (stereo unspecified) | > 200 | 5.89 | –
CC(C)OC(=S)SSSC(=S)OC(C)C | > 200 | 19.1 | –
Cc1cn(C2CC(Sc3cn[nH]n3)C(CO)O2)c(=O)[nH]c1=O (stereo unspecified) | > 380 | 75.9 | –
Cc1c(/C=C/C(=O)O)no[n+]1[O-] | > 200 | > 200 | –
CC12NC(=O)NC(=O)N1CCS2 (stereo unspecified) | – | – | inactive
OCC1c2ccccc2-n2nc(-c3ccccc3)c(O)c21 (stereo unspecified) | > 200 | 3.31 | –
CC(=O)/C(=C/c1ccccc1Cl)C(=O)c1ccccc1 | > 91.2 | 19.1 | –
O=C(O)CC12C3C4C5C3C1C5C42 (stereo unspecified) | > 575 | > 575 | –
Cc1c2ccccc2nc(CSc2ccc(Cl)cc2)[n+]1[O-] | 45.7 | 105 | –
COC(=O)C1(Cc2ccc3c(c2)CCC3)Cc2cc3c(cc2C1)CCC3 | > 200 | > 200 | –
CC(=O)Nc1cc(N=Nc2ccc(NC(=O)c3ccc(N)cc3)cc2C)c(S(=O)(=O)O)cc1N=Nc1ccc(N=Nc2ccc(S(=O)(=O)O)cc2)cc1 | 5.62 | > 100 | –
C[n+]1c2ccccc2n2c3ccccc3c(NCCc3ccccn3)c(C#N)c21 | > 20 | 1.29 | –
N/N=C(\C(=O)Nc1ccc(Cl)cc1Cl)C(c1cnc2ccccc2n1)[N+](=O)[O-] (stereo unspecified) | > 120 | > 120 | –
O=C(Nc1ccccc1)N1CCNC1=S | 162 | > 200 | –
COc1ccc(/C=C/C(=O)C(C)C)cc1 | > 200 | 33.9 | –
c1ccc(CNN2CN(NCc3ccccc3)CN(NCc3ccccc3)C2)cc1 | > 100 | 70.8 | –
N#CC1(c2ccccc2)CCNCC1 | > 1120 | 562 | –
COc1ccc(C=O)c(NC(=O)C(C)C)c1 | – | – | inactive
O=C1c2cccc3cc([N+](=O)[O-])cc(c23)C(=O)N1c1ccc(OCCN2CCCC2)cc1 | > 200 | 5.62 | –
COC1OC(CO)C(O)C(OC(C)=O)C1NC(=O)N(CCCl)N=O (stereo unspecified) | > 676 | 417 | –
C=CCc1ccccc1N(C(=O)c1ccccc1)C(C(=O)OCC)c1ccccc1 (stereo unspecified) | > 13.2 | > 13.2 | –
COc1ccc(S(=O)(=O)N(C)C)cc1C(=O)c1cc(S(=O)(=O)N(C)C)ccc1OC | > 2.29 | > 2.29 | –
CC[C@]1(Cc2ccc(OC)c(OC)c2)C=[N+]([O-])O[C@H](OC2CCCC2(c2ccccc2)c2ccccc2)[C@@H]1OC(=O)c1ccccc1 (stereo partly specified) | > 200 | 1.07 | –

Structure (SMILES) | EC50 [µM] | IC50 [µM] | outcome
CCOC(=O)C(NCc1ccc2c(c1)OCO2)(NC(=O)c1ccccc1)C(F)(F)F (stereo unspecified) | > 200 | 30.2 | –
Cc1[nH]c2ccccc2c1C1Cc2ccccc2N1C(=O)/C(C#N)=C/c1ccccc1 (stereo unspecified) | > 12.9 | 2.29 | –
COC(=O)CC(c1ccccc1)C1(c2ccccc2)SCCS1 (stereo unspecified) | > 7.94 | > 7.94 | –
COc1ccc(C2OC(=O)c3cc[nH]c(=O)c32)cc1 (stereo unspecified) | > 141 | > 141 | –
CC1(C)C[C@@H]2C1CCC1(C)CC2(O)CC[C@H]1O (stereo partly specified) | > 200 | > 200 | –
CC(=O)NC(CCC(=O)c1ccc(Cl)cc1)(C(=O)O)C(=O)O | > 200 | > 200 | –
c1ccc2c(c1)nnn2CN1CCOCC1 | – | – | inactive
O=c1c2ncn(COCCCl)c2n(-c2ccccc2)c(=S)n1-c1ccccc1 | – | – | inactive
CC(=O)OC1C[C@](C)(O)/C=C/CC(C)/C=C/[C@@]2(C)CCC(C(C)(C)O)C12 (stereo partly specified) | – | – | inactive
CC1=C[C@H]2c3c([nH]c4ccccc34)C(c3c[nH]c4ccccc34)[C@H]2CC1 (stereo partly specified) | – | – | inactive
CN(C)C1=CC(=O)c2ccccc2C12CO2 (stereo unspecified) | > 234 | 41.7 | –
COc1cc(CC2C(=O)OCC2C(=O)c2ccc3c(c2)OCO3)cc(OC)c1OC (stereo unspecified) | > 40.7 | > 40.7 | –
CN(C)c1ccc(/C=N/n2c(-c3ccccc3)nc3ccccc3c2=O)cc1 | > 200 | 33.9 | –
C[C@]12CC[C@H]3[C@@H](CC=C4C[C@@H](O)CC[C@@]43C)[C@@H]1CC[C@@H]2N(CCO)CCO | > 200 | 60.3 | –
CC(C)C(/C=C/c1ccccc1)=N\NC(=S)NN | > 200 | 102 | –
Nc1ncnc2c1ncn2C1OC(CO)C2NP(=O)(N(CCCl)CCCl)OC21 (stereo unspecified) | > 200 | > 200 | inactive
COc1nc(NC2OC(COC(C)=O)C(OC(C)=O)C(OC(C)=O)C2OC(C)=O)c(N=C(C)C(C)=O)c(=O)n1C (stereo unspecified) | – | – | inactive
Cc1nc2c(=O)[nH]c3ccc(Cl)cc3c2o1 | > 200 | 148 | –
COC(OC)[C@@H]1OC[C@H](n2cnc3c(N)ncnc32)[C@H]1O | > 200 | > 200 | –
CC1(C)C[C@H]2[C@H](O)C(CO)=C3C(=O)[C@@H](O)[C@]3(C)[C@H]2C1 | – | – | inactive
CCNC1CC(C(C)(C)NCC)CC=C1C (stereo unspecified) | > 224 | > 224 | –
O=C1OC(c2ccccc2)=N/C1=C\c1ccc(Oc2ccc(Cl)c(Cl)c2)cc1 | > 2.51 | > 2.51 | –
O=C1C(c2[nH]c3ccc(S(=O)(=O)O)cc3c2O)=Nc2ccc(S(=O)(=O)O)cc21 | > 200 | > 200 | –

Structure (SMILES) | EC50 [µM] | IC50 [µM] | outcome
CCOC(=O)C(NC(=O)c1ccc(N=NN(C)C)cc1)C(C)C (stereo unspecified) | > 407 | 309 | –
O=C1c2cc3c(cc2CC12Cc1ccccc1C2)CCC3 | > 200 | 28.2 | –
Cc1ccc(S(=O)(=O)N[C@H](C(=O)O)c2ccccc2)cc1 | – | – | inactive
Cc1ccc(-c2c(C#N)c(-c3ccc(C)cc3)n(NS(=O)(=O)c3ccccc3)c(=O)c2C#N)cc1 | > 200 | 22.9 | –
Oc1ccc(Nc2ccccc2)cc1 | > 141 | 24.5 | –
N#C[C@H](C(=O)c1ccccc1F)c1nc2ccccc2s1 | > 200 | 93.3 | –
CN1CCN(CCCCN2c3ccccc3Sc3cc(N=[N+]=[N-])ccc32)CC1 | > 200 | 3.63 | –
CN(C)c1ccc(-c2c(C#N)c(N)[nH]c(=S)c2C#N)cc1 | > 126 | 50.1 | –
CC(=O)c1cccc(NC(=O)C(=O)c2c(O)c3ccccc3oc2=O)c1 | > 708 | 380 | –
COC(=O)C12C=CC(C(=O)OC)(CC1)n1c(=O)n(-c3ccccc3)c(=O)n12 | > 200 | > 200 | –
O=C(Nc1ccc(Cl)cc1)NC(O)C(Cl)(Cl)Cl (stereo unspecified) | > 200 | 148 | –
COC(=O)c1cc2c(=O)n(C)c(=O)n(C)c2[nH]c1=O | > 200 | > 200 | –
CCCCCCCCN(CCCCCCCC)/N=C/c1c2c(O)c3c(O)c(C)c4c(c3c1O)C(=O)C(C)(O/C=C/C(OC)C(C)C(OC(C)=O)C(C)C(O)C(C)C(O)C(C)/C=C/C=C(C)C(=O)N2)O4 (stereo unspecified) | – | – | inactive
O=c1c2ccccc2nc(-c2cccc(Cl)c2)n1NCC1(O)OCC(O)C(O)C1O (stereo unspecified) | – | – | inactive
COP(=O)(CC(=O)CCCCCOC1CCCCO1)OC (stereo unspecified) | – | – | inactive
N#CC(C#N)=C1SCC(=O)CS1 | – | – | inactive
COc1cc2c(cc1OC)C(=O)C(C1=C(SC(=N)N)C(=O)c3cc(OC)c(OC)cc31)C2 (stereo unspecified) | > 28.2 | > 28.2 | –
O=c1nc2c(c(-c3cccc(Cl)c3)[nH]1)COC/C2=C\c1cccc(Cl)c1 | – | – | inactive
COCC(=O)[C@]1(O)Cc2c(O)c3c(c(O)c2[C@@H](OC2CC(N)C(O)C(C)O2)C1)C(=O)c1c(OC)cccc1C3=O (stereo partly specified) | > 0.2 | 0.0631 | –
S=c1[nH]nc(Nc2ccc(Cl)cc2)s1 | > 200 | 79.4 | –
CCCN=C(N)NC#N | > 708 | > 708 | –
CCCN(CCCC(NC(C)=O)C(=O)NCc1ccccc1)C(=O)N(CCCl)N=O (stereo unspecified) | – | – | inactive
CC1CCCc2c1n[nH]c2CC1CC(=O)NC(=O)C1 (stereo unspecified) | > 200 | > 200 | –

Structure (SMILES) | EC50 [µM] | IC50 [µM] | outcome
NS(=O)(=O)c1nnc(NS(=O)(=O)c2ccc(F)cc2)s1 | > 200 | > 200 | –
COc1ccc(/C=C2\CCc3ccccc3C2=O)cc1OC | > 33.9 | > 33.9 | –
COc1cccc(/C=C2/Sc3sc(C(C)=O)c(C)[n+]3C2=O)c1O | > 89.1 | 34.7 | –
COCc1cc(=O)oc2c3c(c4c(c12)OC(C)(C)C=C4)O[C@H](C)[C@@H](C)[C@H]3O | 174 | 182 | –
COC(=O)c1c2c(cc3c1CC1(Cc4cc5c(cc4C1=O)CCC5)C3)CCC2 (stereo unspecified) | > 200 | 52.5 | –
O=c1cc(-c2ccc(O)cc2)oc2cc(O[C@@H]3O[C@H](CO)[C@@H](O)[C@H](O)[C@H]3O)cc(O)c12 | > 200 | 4.57 | –
NC(CCC(=O)O)(CCC(=O)O)CCC(=O)O | – | – | inactive
C/C([O-])=C\[P+](c1ccccc1)(c1ccccc1)c1ccccc1 | > 200 | 105 | –
c1ccc(-c2nc3sc(-c4ccccn4)nc3s2)nc1 | – | – | inactive
CC(=O)c1cccc(C)c1C(=O)O | – | – | inactive
C=C1C(C(=O)OC)[C@H]1C(=O)OC (stereo partly specified) | 5.5 | > 200 | –
CN(CCSSCCN(C)/N=C/c1ccccc1)/N=C/c1ccccc1 | > 200 | > 200 | –
O=C(O)c1cc(=O)c2c([nH]c3ccccc32)s1 | – | – | inactive
CC(=O)OCC12CC(CC1OC(C)=O)c1ccccc12 (stereo unspecified) | > 251 | > 251 | –
CC(=O)c1nc2ccccc2n1CC(=O)c1ccc(Cl)cc1 | > 200 | 1.35 | –
CCOP(=O)(OCC)OC(C#N)c1ccc(-c2ccccc2)cc1 (stereo unspecified) | > 89.1 | 45.7 | –
CC1=NN(C(=O)c2ccccc2O)C(=O)/C1=C/c1ccccc1O | > 30.9 | 0.0617 | –
O=c1[nH]c2ccc(CC(=S)N3CCCCC3)cc2s1 | > 200 | 148 | –
COc1ccc(OC)c(/C=C2\C=Cc3ccccc32)c1 | > 38 | 6.46 | –
Cn1c(N=[N+]=[N-])cc(=O)n(C)c1=O | – | – | inactive
O=S(=O)(c1ccccc1)n1cnc(CCc2ccccc2)n1 | > 794 | > 794 | –
